Data published in paper PMC2248166, “Quantitative peptide binding motifs for 19 human and mouse MHC class I molecules derived using positional scanning combinatorial peptide libraries” (Immunome Research, 2008).
Where a SMILES comes first, the peptide text is derived from it.

Each compound was assayed against HLA B*0801 (Homo sapiens, UniProt P01889, A93T/A95T/D138N/E176V/E187T/K202T/Q94N/R180D/S35A/V36M/Y33D/Y91F) (assay: biochemical).
Assay type: binding

With `CC(C)C[C@H](NC(=O)[C@H](CO)NC(=O)[C@H](Cc1ccccc1)NC(=O)[C@@H]1CCCN1C(=O)[C@H](CCCNC(=N)N)NC(=O)[C@H](CCCNC(=N)N)NC(=O)[C@H](CC(C)C)NC(=O)[C@H](CC(C)C)NC(=O)[C@@H](N)CCCCN)C(=O)O` [3102.0529] (H-KLLRRPFSL-OH) as the compound, how does the IC50 read?
Its IC50 is 0.36 nM.

How did the IC50 turn out when `CC(C)C[C@H](NC(=O)[C@H](CCCCN)NC(=O)[C@H](CCCNC(=N)N)NC(=O)[C@@H](N)CCCNC(=N)N)C(=O)N[C@@H](CC(C)C)C(=O)N[C@@H](CCCNC(=N)N)C(=O)N[C@@H](CCCNC(=N)N)C(=O)N1CCC[C@H]1C(=O)N[C@@H](Cc1ccccc1)C(=O)O` [3102.0530] (H-RRKLLRRPF-OH) was run?
The IC50 was 11 nM.

Which IC50 does the source give for `CC[C@H](C)[C@H](NC(=O)[C@@H](NC(=O)[C@H](CC(N)=O)NC(=O)[C@H](CCCCN)NC(=O)[C@H](CCCNC(=N)N)NC(=O)[C@@H](NC(=O)[C@H](Cc1ccccc1)NC(=O)[C@H](CC(C)C)NC(=O)[C@@H](N)Cc1ccc(O)cc1)[C@@H](C)CC)C(C)C)C(=O)O` [3102.0531] (H-YLFIRKNVI-OH) here?
The IC50 was 0.71 nM.

How did the IC50 turn out when `CC[C@H](C)[C@H](NC(=O)CNC(=O)[C@@H]1CCCN1C(=O)[C@@H](N)CO)C(=O)N[C@@H](CCCNC(=N)N)C(=O)N1CCC[C@H]1C(=O)N[C@@H](CCCNC(=N)N)C(=O)N[C@@H](Cc1ccccc1)C(=O)N[C@@H](CC(C)C)C(=O)O` [3102.0532] (H-SPGIRPRFL-OH) was run?
The IC50 was 56 nM.

Which IC50 does the source give for `CC[C@H](C)[C@H](NC(=O)[C@@H](N)CO)C(=O)N[C@@H](CCCCN)C(=O)N[C@@H](CO)C(=O)N[C@@H](CCCCN)C(=O)N[C@@H](CO)C(=O)N[C@@H](CCCNC(=N)N)C(=O)N[C@@H](CCCNC(=N)N)C(=O)N[C@@H](CC(C)C)C(=O)O` [3102.0534] (H-SIKSKSRRL-OH) here?
The IC50 was 30 nM.

With `CC[C@H](C)[C@H](NC(=O)[C@H](CCCCN)NC(=O)[C@@H](NC(=O)[C@H](CCCNC(=N)N)NC(=O)[C@H](CC(C)C)NC(=O)[C@H](CC(N)=O)NC(=O)[C@H](CC(C)C)NC(=O)[C@@H](N)CO)[C@@H](C)CC)C(=O)N[C@@H](CC(C)C)C(=O)O` [3102.0536] (H-SLNLRIKIL-OH) as the compound, how does the IC50 read?
The IC50 was 92 nM.

How did the IC50 turn out when `CC[C@H](C)[C@H](N)C(=O)N[C@@H](CC(C)C)C(=O)N[C@@H](CCCNC(=N)N)C(=O)N[C@@H](CCCCN)C(=O)N[C@H](C(=O)N[C@@H](Cc1ccccc1)C(=O)N[C@@H](Cc1ccc(O)cc1)C(=O)N[C@@H](CO)C(=O)N[C@H](C(=O)O)C(C)C)[C@@H](C)CC` [3102.0538] (H-ILRKIFYSV-OH) was run?
Its IC50 is 0.1 nM.

With `CC[C@H](C)[C@H](NC(=O)[C@H](Cc1ccc(O)cc1)NC(=O)[C@H](CCSC)NC(=O)[C@H](CC(C)C)NC(=O)[C@@H](N)CCC(=O)O)C(=O)N[C@@H](Cc1ccccc1)C(=O)N[C@@H](C)C(=O)N[C@@H](C)C(=O)N[C@@H](CC(C)C)C(=O)O` [3102.0539] (H-ELMYIFAAL-OH) as the compound, how does the IC50 read?
The IC50 was 30 nM.

For `CC[C@H](C)[C@H](NC(=O)[C@H](CO)NC(=O)[C@H](CC(C)C)NC(=O)[C@H](CCSC)NC(=O)[C@H](CO)NC(=O)[C@H](CCCNC(=N)N)NC(=O)[C@@H]1CCCN1C(=O)[C@@H](N)Cc1ccccc1)C(=O)N[C@@H](Cc1ccccc1)C(=O)O` [3102.0543] (H-FPRSMLSIF-OH), which IC50 is on record?
The IC50 was 9.9 nM.

How did the IC50 turn out when `CSCC[C@H](N)C(=O)N[C@@H](CCCNC(=N)N)C(=O)N[C@@H](Cc1ccccc1)C(=O)N[C@@H](CCCCN)C(=O)N[C@@H](CCCCN)C(=O)N[C@@H](CCC(=O)O)C(=O)N[C@@H](CO)C(=O)N[C@@H](CO)C(=O)N[C@@H](CC(C)C)C(=O)O` [3102.0545] (H-MRFKKESSL-OH) was run?
Its IC50 is 3.4 nM.

Which IC50 does the source give for `CC[C@H](C)[C@H](NC(=O)[C@H](CO)NC(=O)[C@H](CC(C)C)NC(=O)[C@H](CC(C)C)NC(=O)[C@H](CCCNC(=N)N)NC(=O)[C@H](CCSC)NC(=O)[C@H](CCC(=O)O)NC(=O)[C@H](C)NC(=O)[C@@H](N)CO)C(=O)O` [3102.0547] (H-SAEMRLLSI-OH) here?
The IC50 was 21 nM.

How did the IC50 turn out when `CC(C)C[C@H](NC(=O)[C@H](CC(N)=O)NC(=O)[C@H](Cc1ccc(O)cc1)NC(=O)[C@H](Cc1ccccc1)NC(=O)[C@H](Cc1c[nH]cn1)NC(=O)[C@H](CC(=O)O)NC(=O)[C@H](CCCNC(=N)N)NC(=O)[C@H](CC(C)C)NC(=O)[C@@H](N)Cc1ccc(O)cc1)C(=O)O` [3102.0548] (H-YLRDHFYNL-OH) was run?
Its IC50 is 8.3 nM.

How did the IC50 turn out when `CC[C@H](C)[C@H](NC(=O)CNC(=O)[C@H](Cc1c[nH]cn1)NC(=O)[C@H](CCCNC(=N)N)NC(=O)[C@H](CCC(N)=O)NC(=O)[C@H](CC(C)C)NC(=O)[C@H](CCCCN)NC(=O)[C@@H](N)CO)C(=O)N[C@@H](CC(C)C)C(=O)O` [3102.0549] (H-SKLQRHGIL-OH) was run?
Its IC50 is 16 nM.

For `CC[C@H](C)[C@H](NC(=O)[C@@H](N)CO)C(=O)N[C@@H](Cc1c[nH]cn1)C(=O)N[C@@H](CCC(=O)O)C(=O)N[C@@H](CCCCN)C(=O)N[C@@H](Cc1ccccc1)C(=O)N[C@@H](Cc1c[nH]c2ccccc12)C(=O)N1CCC[C@H]1C(=O)N[C@@H](CC(C)C)C(=O)O` [3102.0550] (H-SIHEKFWPL-OH), which IC50 is on record?
Its IC50 is 1.4 nM.

`CC[C@H](C)[C@H](NC(=O)[C@H](Cc1ccc(O)cc1)NC(=O)[C@H](C)NC(=O)[C@@H]1CCCN1C(=O)[C@@H](N)CCSC)C(=O)N[C@@H](CCCNC(=N)N)C(=O)N[C@@H](CC(N)=O)C(=O)N[C@H](C(=O)N[C@@H](CC(C)C)C(=O)O)[C@@H](C)O` [3102.0553] was tested. Which IC50 did it give?
Its IC50 is 1.4 nM.

How did the IC50 turn out when `CC(C)[C@H](NC(=O)[C@H](Cc1ccccc1)NC(=O)[C@H](CS)NC(=O)[C@@H](NC(=O)[C@H](CCCCN)NC(=O)[C@H](CCCCN)NC(=O)[C@H](CCCCN)NC(=O)[C@H](CO)NC(=O)[C@@H](N)Cc1ccccc1)C(C)C)C(=O)O` [3102.0556] (H-FSKKKVCFV-OH) was run?
Its IC50 is 6 nM.

Which IC50 does the source give for `CSCC[C@H](NC(=O)[C@H](C)NC(=O)[C@@H](NC(=O)[C@@H](N)C(C)C)C(C)C)C(=O)N[C@@H](CCCNC(=N)N)C(=O)N[C@@H](Cc1c[nH]cn1)C(=O)N[C@@H](CC(C)C)C(=O)N[C@@H](CO)C(=O)N[C@@H](CC(C)C)C(=O)O` [3102.0557] (H-VVAMRHLSL-OH) here?
Its IC50 is 0.98 nM.

Which IC50 does the source give for `CC[C@H](C)[C@H](NC(=O)[C@H](CCCNC(=N)N)NC(=O)[C@H](CCCCN)NC(=O)[C@H](CCSC)NC(=O)[C@@H](NC(=O)[C@@H](N)CC(N)=O)C(C)C)C(=O)N[C@@H](CC(N)=O)C(=O)N[C@@H](CS)C(=O)N[C@@H](Cc1ccccc1)C(=O)O` [3102.0558] (H-NVMKRINCF-OH) here?
The IC50 was 20 nM.

For `CC[C@H](C)[C@H](NC(=O)[C@H](Cc1ccccc1)NC(=O)[C@H](Cc1ccccc1)NC(=O)[C@@H](N)CCSC)C(=O)N[C@@H](CCCNC(=N)N)C(=O)N[C@@H](Cc1ccccc1)C(=O)NCC(=O)N[C@@H](CCCCN)C(=O)N[C@@H](CCSC)C(=O)O` [3102.0559] (H-MFFIRFGKM-OH), which IC50 is on record?
The IC50 was 32 nM.

With `CSCC[C@H](NC(=O)[C@H](C)NC(=O)[C@H](CC(C)C)NC(=O)[C@H](CO)NC(=O)[C@H](CCCCN)NC(=O)[C@H](CCSC)NC(=O)[C@H](CCCNC(=N)N)NC(=O)[C@H](CCCCN)NC(=O)[C@@H](N)CC(=O)O)C(=O)O` [3102.0560] (H-DKRMKSLAM-OH) as the compound, how does the IC50 read?
Its IC50 is 9.9 nM.

For `CC[C@H](C)[C@H](NC(=O)[C@H](C)NC(=O)[C@H](CC(C)C)NC(=O)[C@@H](NC(=O)[C@H](CCCCN)NC(=O)[C@H](CCCNC(=N)N)NC(=O)[C@H](CCCCN)NC(=O)[C@H](CC(N)=O)NC(=O)[C@@H](N)CO)C(C)C)C(=O)O` [3102.0561] (H-SNKRKVLAI-OH), which IC50 is on record?
The IC50 was 1.9 nM.

How did the IC50 turn out when `CC(C)C[C@H](NC(=O)[C@H](CS)NC(=O)[C@H](CCC(=O)O)NC(=O)[C@H](CCCCN)NC(=O)[C@H](Cc1c[nH]cn1)NC(=O)[C@H](CC(C)C)NC(=O)[C@H](CCCNC(=N)N)NC(=O)[C@H](CC(N)=O)NC(=O)[C@@H](N)CCC(=O)O)C(=O)O` [3102.0562] (H-ENRLHKECL-OH) was run?
The IC50 was 73 nM.

How did the IC50 turn out when `C[C@H](NC(=O)[C@H](CCCCN)NC(=O)[C@H](Cc1ccccc1)NC(=O)[C@H](CCCCN)NC(=O)[C@H](CC(=O)O)NC(=O)[C@H](CCCNC(=N)N)NC(=O)[C@H](CC(N)=O)NC(=O)[C@@H](N)Cc1ccc(O)cc1)C(=O)N[C@@H](Cc1ccccc1)C(=O)O` [3102.0564] (H-YNRDKFKAF-OH) was run?
Its IC50 is 20 nM.

For `CC(C)C[C@H](NC(=O)[C@H](Cc1ccccc1)NC(=O)[C@H](C)NC(=O)[C@H](Cc1ccccc1)NC(=O)[C@H](CCCNC(=N)N)NC(=O)[C@H](Cc1ccc(O)cc1)NC(=O)[C@H](CCCNC(=N)N)NC(=O)[C@H](CC(N)=O)NC(=O)[C@@H](N)CC(N)=O)C(=O)O` [3102.0568] (H-NNRYRFAFL-OH), which IC50 is on record?
Its IC50 is 31 nM.

For `CC(C)[C@H](NC(=O)[C@H](CC(N)=O)NC(=O)[C@H](C)NC(=O)[C@H](Cc1ccccc1)NC(=O)[C@H](CCCCN)NC(=O)[C@H](CCCCN)NC(=O)[C@H](Cc1c[nH]cn1)NC(=O)[C@H](CCCNC(=N)N)NC(=O)[C@@H](N)CC(N)=O)C(=O)O` [3102.0572] (H-NRHKKFANV-OH), which IC50 is on record?
Its IC50 is 36 nM.

For `CC[C@H](C)[C@H](NC(=O)[C@@H]1CCCN1C(=O)[C@@H](NC(=O)[C@H](Cc1c[nH]cn1)NC(=O)[C@H](Cc1ccc(O)cc1)NC(=O)[C@H](CCCCN)NC(=O)[C@H](CCCNC(=N)N)NC(=O)[C@@H](N)Cc1ccc(O)cc1)C(C)C)C(=O)N[C@@H](CCSC)C(=O)O` [3102.0573] (H-YRKYHVPIM-OH), which IC50 is on record?
Its IC50 is 62 nM.

`CC[C@H](C)[C@H](NC(=O)[C@H](CCCNC(=N)N)NC(=O)[C@H](CCCNC(=N)N)NC(=O)[C@H](CCSC)NC(=O)[C@H](CC(C)C)NC(=O)[C@H](C)NC(=O)[C@@H](N)CC(N)=O)C(=O)N[C@@H](C)C(=O)N[C@H](C(=O)O)C(C)C` [3102.0577] (H-NALMRRIAV-OH) was tested. Which IC50 did it give?
The IC50 was 17 nM.

For `CC[C@H](C)[C@H](NC(=O)[C@H](Cc1ccc(O)cc1)NC(=O)[C@@H](NC(=O)[C@H](CCCCN)NC(=O)[C@H](CCCCN)NC(=O)[C@H](Cc1ccccc1)NC(=O)[C@H](CCCNC(=N)N)NC(=O)[C@@H](N)CO)C(C)C)C(=O)N[C@@H](CC(C)C)C(=O)O` [3102.0579] (H-SRFKKVYIL-OH), which IC50 is on record?
The IC50 was 76 nM.

`CC[C@H](C)[C@H](NC(=O)[C@H](Cc1c[nH]cn1)NC(=O)[C@H](Cc1ccccc1)NC(=O)[C@H](CCCCN)NC(=O)[C@H](CC(C)C)NC(=O)[C@H](CCCNC(=N)N)NC(=O)[C@H](CS)NC(=O)[C@@H](N)Cc1c[nH]c2ccccc12)C(=O)N[C@H](C(=O)O)C(C)C` [3102.0584] (H-WCRLKFHIV-OH) was tested. Which IC50 did it give?
The IC50 was 82 nM.

`CC[C@H](C)[C@H](NC(=O)[C@H](CO)NC(=O)[C@@H](NC(=O)[C@H](CC(C)C)NC(=O)[C@H](CCCCN)NC(=O)[C@H](CCSC)NC(=O)[C@H](CCCCN)NC(=O)[C@@H](NC(=O)[C@@H](N)CO)[C@@H](C)CC)C(C)C)C(=O)O` [3102.0585] (H-SIKMKLVSI-OH) was tested. Which IC50 did it give?
Its IC50 is 16 nM.
